Experimental data published in PubChem BioAssay (NCI).
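Tested at 5 concentrations; 48 h exposure; 96-well plates; endpoints linearly interpolated, else capped at highest concentration. TGI: concentration producing complete growth inhibition.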

Experiments:
Assay in all cases: NCI tumour cell line growth inhibition, 48 h
SF-539 CNS = test system: SF-539 CNS
HT29 colon = test system: HT29 colon
HOP-62 NSCLC = test system: HOP-62 NSCLC
HL-60(TB) leukemia = test system: HL-60(TB) leukemia
UACC-257 melanoma = test system: UACC-257 melanoma
MDA-N = test system: MDA-N
T-47D breast = test system: T-47D breast
M14 melanoma = test system: M14 melanoma
OVCAR-3 ovarian = test system: OVCAR-3 ovarian
PC-3 prostate = test system: PC-3 prostate
SN12C renal = test system: SN12C renal
SK-MEL-2 melanoma = test system: SK-MEL-2 melanoma
DU-145 prostate = test system: DU-145 prostate
RPMI-8226 leukemia = test system: RPMI-8226 leukemia
MDA-MB-231 breast = test system: MDA-MB-231 breast
MALME-3M melanoma = test system: MALME-3M melanoma
K-562 leukemia = test system: K-562 leukemia
SK-MEL-5 melanoma = test system: SK-MEL-5 melanoma
RXF 393 renal = test system: RXF 393 renal
U251 CNS = test system: U251 CNS
OVCAR-8 ovarian = test system: OVCAR-8 ovarian
HCT-15 colon = test system: HCT-15 colon
786-0 renal = test system: 786-0 renal
UACC-62 melanoma = test system: UACC-62 melanoma
CAKI-1 renal = test system: CAKI-1 renal
SF-295 CNS = test system: SF-295 CNS
NCI/ADR-RES ovarian = test system: NCI/ADR-RES ovarian
A549 NSCLC = test system: A549 NSCLC
UO-31 renal = test system: UO-31 renal
ACHN renal = test system: ACHN renal
NCI-H460 lung = test system: NCI-H460 lung
LOX IMVI melanoma = test system: LOX IMVI melanoma
TK-10 renal = test system: TK-10 renal
MDA-MB-435 = test system: MDA-MB-435
MCF7 breast = test system: MCF7 breast
SW-620 colon = test system: SW-620 colon
COLO 205 colon = test system: COLO 205 colon
SR leukemia = test system: SR leukemia
NCI-H522 lung = test system: NCI-H522 lung
HCC-2998 colon = test system: HCC-2998 colon
A498 renal = test system: A498 renal
SNB-19 CNS = test system: SNB-19 CNS
KM12 colon = test system: KM12 colon
SF-268 CNS = test system: SF-268 CNS
BT-549 breast = test system: BT-549 breast
NCI-H23 lung = test system: NCI-H23 lung
SNB-75 CNS = test system: SNB-75 CNS
OVCAR-5 ovarian = test system: OVCAR-5 ovarian
HS 578T breast = test system: HS 578T breast
MOLT-4 leukemia = test system: MOLT-4 leukemia
IGROV1 ovarian = test system: IGROV1 ovarian
SK-OV-3 ovarian = test system: SK-OV-3 ovarian
NCI-H226 lung = test system: NCI-H226 lung
SK-MEL-28 melanoma = test system: SK-MEL-28 melanoma
HCT-116 colon = test system: HCT-116 colon
CCRF-CEM leukemia = test system: CCRF-CEM leukemia
OVCAR-4 ovarian = test system: OVCAR-4 ovarian
EKVX NSCLC = test system: EKVX NSCLC
HOP-92 NSCLC = test system: HOP-92 NSCLC

COc1cc(CC(C)NC(C)=O)cc(OC)c1 (configuration not stated) was tested, and the TGI (SF-539 CNS) was over 100 µM, the TGI (HT29 colon) was over 100 µM and the TGI (HOP-62 NSCLC) was over 100 µM. It also gave a TGI (HL-60(TB) leukemia) of over 100 µM, a TGI (UACC-257 melanoma) of over 100 µM and a TGI (MDA-N) of over 100 µM. The TGI (T-47D breast) was over 100 µM, the TGI (M14 melanoma) was over 100 µM and the TGI (OVCAR-3 ovarian) was over 100 µM. It also gave a TGI (PC-3 prostate) of over 100 µM, a TGI (SN12C renal) of over 100 µM and a TGI (SK-MEL-2 melanoma) of over 100 µM. It also gave a TGI (DU-145 prostate) of over 100 µM, a TGI (RPMI-8226 leukemia) of over 100 µM and a TGI (MDA-MB-231 breast) of over 100 µM. For the same compound, the TGI (MALME-3M melanoma) was over 100 µM, the TGI (K-562 leukemia) was over 100 µM and the TGI (SK-MEL-5 melanoma) was over 100 µM. It also gave a TGI (RXF 393 renal) of over 100 µM, a TGI (U251 CNS) of over 100 µM and a TGI (OVCAR-8 ovarian) of over 100 µM. The TGI (HCT-15 colon) was over 100 µM, the TGI (786-0 renal) was over 100 µM and the TGI (UACC-62 melanoma) was over 100 µM. The TGI (CAKI-1 renal) was over 100 µM, the TGI (SF-295 CNS) was over 100 µM and the TGI (NCI/ADR-RES ovarian) was over 100 µM. It also gave a TGI (A549 NSCLC) of over 100 µM, a TGI (UO-31 renal) of over 100 µM and a TGI (ACHN renal) of over 100 µM. For the same compound, the TGI (NCI-H460 lung) was over 100 µM, the TGI (LOX IMVI melanoma) was over 100 µM and the TGI (TK-10 renal) was over 100 µM. The TGI (MDA-MB-435) was over 100 µM, the TGI (MCF7 breast) was over 100 µM and the TGI (SW-620 colon) was over 100 µM. It also gave a TGI (COLO 205 colon) of over 100 µM, a TGI (SR leukemia) of over 100 µM and a TGI (NCI-H522 lung) of over 100 µM. For the same compound, the TGI (HCC-2998 colon) was over 100 µM, the TGI (A498 renal) was over 100 µM and the TGI (SNB-19 CNS) was over 100 µM. It also gave a TGI (KM12 colon) of over 100 µM, a TGI (SF-268 CNS) of over 100 µM and a TGI (BT-549 breast) of over 100 µM. For the same compound, the TGI (NCI-H23 lung) was over 100 µM, the TGI (SNB-75 CNS) was over 100 µM and the TGI (OVCAR-5 ovarian) was over 100 µM. The TGI (HS 578T breast) was over 100 µM, the TGI (MOLT-4 leukemia) was over 100 µM and the TGI (IGROV1 ovarian) was over 100 µM. The TGI (SK-OV-3 ovarian) was over 100 µM, the TGI (NCI-H226 lung) was over 100 µM and the TGI (SK-MEL-28 melanoma) was over 100 µM. The TGI (HCT-116 colon) was over 100 µM and the TGI (CCRF-CEM leukemia) was over 100 µM.
CCN(CC)C(=S)Oc1cc2oc(=O)cc(C)c2cc1Cl showed a TGI (SF-539 CNS) of over 100 µM, a TGI (HT29 colon) of over 100 µM and a TGI (HOP-62 NSCLC) of over 100 µM. The TGI (HL-60(TB) leukemia) was over 100 µM, the TGI (UACC-257 melanoma) was over 100 µM and the TGI (MDA-N) was over 100 µM. For the same compound, the TGI (T-47D breast) was over 100 µM, the TGI (M14 melanoma) was over 100 µM and the TGI (OVCAR-3 ovarian) was over 100 µM. For the same compound, the TGI (OVCAR-4 ovarian) was over 100 µM, the TGI (PC-3 prostate) was over 100 µM and the TGI (SN12C renal) was over 100 µM. The TGI (SK-MEL-2 melanoma) was over 100 µM, the TGI (DU-145 prostate) was over 100 µM and the TGI (RPMI-8226 leukemia) was over 100 µM. For the same compound, the TGI (MDA-MB-231 breast) was over 100 µM, the TGI (K-562 leukemia) was over 100 µM and the TGI (SK-MEL-5 melanoma) was over 100 µM. For the same compound, the TGI (RXF 393 renal) was over 100 µM, the TGI (U251 CNS) was over 100 µM and the TGI (OVCAR-8 ovarian) was over 100 µM. For the same compound, the TGI (HCT-15 colon) was over 100 µM, the TGI (786-0 renal) was over 100 µM and the TGI (UACC-62 melanoma) was 73.7 µM. The TGI (CAKI-1 renal) was over 100 µM, the TGI (SF-295 CNS) was over 100 µM and the TGI (NCI/ADR-RES ovarian) was over 100 µM. It also gave a TGI (A549 NSCLC) of over 100 µM, a TGI (UO-31 renal) of over 100 µM and a TGI (ACHN renal) of over 100 µM. The TGI (EKVX NSCLC) was over 100 µM, the TGI (NCI-H460 lung) was over 100 µM and the TGI (LOX IMVI melanoma) was over 100 µM. It also gave a TGI (TK-10 renal) of over 100 µM, a TGI (MDA-MB-435) of over 100 µM and a TGI (MCF7 breast) of over 100 µM. It also gave a TGI (SW-620 colon) of over 100 µM, a TGI (COLO 205 colon) of over 100 µM and a TGI (SR leukemia) of over 100 µM. For the same compound, the TGI (NCI-H522 lung) was over 100 µM, the TGI (HCC-2998 colon) was over 100 µM and the TGI (A498 renal) was over 100 µM. It also gave a TGI (SNB-19 CNS) of over 100 µM, a TGI (KM12 colon) of over 100 µM and a TGI (SF-268 CNS) of over 100 µM. The TGI (BT-549 breast) was over 100 µM, the TGI (NCI-H23 lung) was over 100 µM and the TGI (OVCAR-5 ovarian) was over 100 µM. The TGI (HS 578T breast) was over 100 µM, the TGI (MOLT-4 leukemia) was over 100 µM and the TGI (IGROV1 ovarian) was over 100 µM. For the same compound, the TGI (NCI-H226 lung) was over 100 µM, the TGI (SK-MEL-28 melanoma) was over 100 µM and the TGI (HOP-92 NSCLC) was over 100 µM. It also gave a TGI (HCT-116 colon) of over 100 µM and a TGI (CCRF-CEM leukemia) of over 100 µM.
